In publication PMC10873978, “Novel tetrahydroisoquinolines as DHFR and CDK2 inhibitors: synthesis, characterization, anticancer activity and antioxidant properties” (BMC Chemistry, 2024):
“And” between values parts separate entries of the source, which are not always exact repeats. Equal entries are not always repeated. Where two headings read alike, the source gives them in different places. Each block holds one compound with its values, some of them ahead of it.

What was measured:
IKB kinase B = target: T1, IKB kinase B (Homo sapiens, UniProt O14920); experiment: IKB kinase inhibition; format: biochemical; conditions: IκB
T1 sequence (O14920 1-756): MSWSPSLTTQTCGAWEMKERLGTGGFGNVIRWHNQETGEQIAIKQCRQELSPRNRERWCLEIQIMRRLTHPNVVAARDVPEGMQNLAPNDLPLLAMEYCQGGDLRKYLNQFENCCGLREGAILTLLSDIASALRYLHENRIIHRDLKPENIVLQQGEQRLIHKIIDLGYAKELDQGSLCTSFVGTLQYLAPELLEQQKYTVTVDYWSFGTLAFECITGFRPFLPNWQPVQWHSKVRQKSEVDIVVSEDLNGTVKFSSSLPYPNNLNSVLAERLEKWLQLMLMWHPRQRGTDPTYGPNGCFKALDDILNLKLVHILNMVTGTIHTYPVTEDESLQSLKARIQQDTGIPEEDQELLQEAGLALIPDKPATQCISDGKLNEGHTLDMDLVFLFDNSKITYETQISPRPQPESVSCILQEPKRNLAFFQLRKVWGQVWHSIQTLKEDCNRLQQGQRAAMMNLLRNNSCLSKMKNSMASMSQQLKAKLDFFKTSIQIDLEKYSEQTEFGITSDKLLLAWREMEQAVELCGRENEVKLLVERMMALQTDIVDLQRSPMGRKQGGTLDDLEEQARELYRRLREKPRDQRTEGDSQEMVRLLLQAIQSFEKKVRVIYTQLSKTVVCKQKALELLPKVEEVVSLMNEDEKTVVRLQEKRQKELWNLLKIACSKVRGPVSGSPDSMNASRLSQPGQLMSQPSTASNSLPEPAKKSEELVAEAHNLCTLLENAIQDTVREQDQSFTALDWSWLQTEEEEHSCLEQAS

[1] = Cytotoxicity on normal cell line WI-38; format: cell-based, human; conditions: human, % viability
WI-38 cell line = experiment: Cytotoxicity on normal cell line WI-38; format: cell-based, human; conditions: for IC50: read-out: Toxicity on WI38 IC50 ± SD; for % viability: human
A549 cell line = experiment: In vitro cytotoxic activity, MTT method, A549; conditions: Homo sapiens, read-out: IC50 ± SD
How it was run: (§1)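 Monolayers formed over 24 h at 37 °C from 10^5 cells/mL were treated with graded compound concentrations, doxorubicin serving as reference. Viability came from MTT reduction over 1–5 h (5% CO2), absorbance at 560 nm with 620 nm background subtraction.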

MCF7 cell line = experiment: In vitro cytotoxic activity, MTT method, MCF7; format: cell-based, human
How it was run: as §1

- %inh (IKB kinase B; conc 0.01 (log -2)): 32.5%
- %inh (IKB kinase B; conc 0.1 (log -1)): 53.6%
- %inh (IKB kinase B; conc 1 (log 0)): 71.3%
- %inh (IKB kinase B; conc 10 (log 1)): 88.6%
- %inh (IKB kinase B; conc 100 (log 2)): 95.2%
SMILES: NC(=O)Nc1sc(-c2ccc(F)cc2)cc1C(N)=O [TPCA-1, reference compound]

SMILES: COc1cccc2c1C(=O)c1c(O)c3c(c(O)c1C2=O)C[C@@](O)(C(=O)CO)C[C@@H]3O[C@H]1C[C@H](N)[C@H](O)[C@H](C)O1 [Doxorubicin, reference compound]
- viability at 1.55 µM [1]: 84.1%
- viability at 6.25 µM [1]: 64.5%
- viability at 12.5 µM [1]: 52.4%
- viability at 25 µM [1]: 31.1%
- IC50 (WI-38 cell line; Homo sapiens, WI-38, normal human fetal lung fibroblast WI-38): 11.4 µM
- Selectivity index (SI) (WI-38 cell line; IC50 in WI-38 / IC50 in A549): 52 and 52.4
- % viability (WI-38 cell line; 1.55 µM): 84.08%
- % viability (WI-38 cell line; 3.25 µM): 72.52%
- % viability (WI-38 cell line; 12.5 µM): 52.38%
- % viability (WI-38 cell line; 25 µM): 31.09%
- IC50 (WI-38 cell line; normal human fetal lung fibroblast WI-38): 11.4 ± 0.37 µM
- IC50 (A549 cell line): 0.218 ± 0.005 µM
- IC50 (MCF7 cell line; Homo sapiens, MCF7, MCF7 cell line, MTT): 0.053 ± 0.002 µM
- Toxicity % (MCF7 cell line; MCF7, 0.0487 µMol): 48.12%
- Viability % (MCF7 cell line; MCF7, 0.0487 µMol): 51.88%
- Toxicity % (MCF7 cell line; MCF7, 0.0975 µMol): 52.667%
- Viability % (MCF7 cell line; MCF7, 0.0975 µMol): 47.34%
- Toxicity % (MCF7 cell line; MCF7, 0.195 µMol): 56.34%
- Viability % (MCF7 cell line; MCF7, 0.195 µMol): 43.66%
- Toxicity % (MCF7 cell line; MCF7, 0.391 µMol): 62.87%
- Viability % (MCF7 cell line; MCF7, 0.391 µMol): 37.13%
- Toxicity % (MCF7 cell line; MCF7, 0.781 µMol): 73.56%
- Viability % (MCF7 cell line; MCF7, 0.781 µMol): 26.44%
- Toxicity % (MCF7 cell line; MCF7, 1.562 µMol): 80.23%
- Viability % (MCF7 cell line; MCF7, 1.562 µMol): 19.77%
- Toxicity % (MCF7 cell line; MCF7, 3.125 µMol): 90.87%
- Viability % (MCF7 cell line; MCF7, 3.125 µMol): 9.13%
- Toxicity % (MCF7 cell line; MCF7, 6.25 µMol): 93.45%
- Viability % (MCF7 cell line; MCF7, 6.25 µMol): 6.55%
- Toxicity % (MCF7 cell line; MCF7, 12.5 µMol): 97.46%
- Viability % (MCF7 cell line; MCF7, 12.5 µMol): 2.542%
- Toxicity % (MCF7 cell line; MCF7, 25 µMol): 98.45%
- Viability % (MCF7 cell line; MCF7, 25 µMol): 1.556%
